14 compounds from patent publication US7015211B2 (Yale University, priority 2003, dated 2006) can be followed below.

“And” between values parts separate entries of the source, which are not always exact repeats. Equal entries are not always repeated. “Also recorded” adds a separate entry of the source. Where two headings read alike, the source gives them in different places. Marks after values point to notes of the source that are not given here.

Series [1] relates to esterase, rat hepatic microsomes. Kind of series: Esterase hydrolysis in rat hepatic microsomes. The class given is in vitro ADME. The protocol:
Esterase. Esterase activity was measured in rat hepatic microsomes essentially using the conditions described^41 with some minor modifications. Briefly, rat hepatic microsomes were incubated with 50 μM E2-alkyl ester. Since the rates of reaction are widely different for the various esters, the incubation times and enzyme concentration were varied accordingly to obtain linear kinetics. In every experiment, E16-1,2 was run concurrently to normalize the rate of hydrolysis of each compound. At several appropriate time points during the incubation (37° C.), 100 μL aliquots were quenched with a solution of 2 μg of the internal standard, 6-ketoestradiol in 33 μL of CH3CN, 33 μL of THF and 5 μL of glacial HOAc. The mixture was centrifuged and analyzed for the esterase-hydrolysis product (the corresponding E2-carboxylic acid) by reversed phase HPLC: E16-1,0; E15-1,0; E15-2,0; and E15-3,0 by HPLC with system H-29. Peaks for the hydrolysis product (E16-1,0 tR=10.7 min; E15-1,0 tR=6.9 min; E15-2,0 tR=9.9 min; E15-3,0 tR=14 min;) and the internal standard (tR=11.8 min for system H-29 and tR=8.8 min for system H-30 were quantified at 280 nm on the HPLC UV detector. The UV absorbance was converted to nmoles of product by comparison to standard curves and corrected for recovery of the internal standard, 6-ketoestradiol. The velocity of the reaction for each ester, in nmol product/min/mg protein, was then normalized to the ester, E16-1,2 and is shown in Table 1 as relative hydrolytic activity (RHA) The enzymatic velocity for the hydrolysis of E16-1,2 was 2.34±0.8 (S.D.) nmol product/min/mg protein over the various experiments. All compounds were tested in triplicate in at least 2 separate experiments

Series [2] has as its system human endometrial adenocarcinoma cells (Ishikawa). In words: Estrogenic potency in Ishikawa cells, induction of alkaline phosphatase (AlkP). The class given is cell-based. Conditions: for Ishikawa cell AlkP (RSA): relative stimulatory activity = EC50 of E2 / EC50 of analog x 100, E2 = 100, 3 days, ± SD. The protocol:
Estrogenic Potency in Ishikawa Cells. The estrogenic potency of the E2-analogs was determined in an estrogen bioassay, the induction of alkaline phosphatase (AlkP) in human endometrial adenocarcinoma cells (Ishikawa) grown in 96-well microtiter plates as we have previously described.^38 In short, the cells are grown in phenol red free medium with estrogen depleted (charcoal stripped) bovine serum in the presence or absence of varying amounts of the steroids, across a dose range of at least 6 orders of magnitude. […] After 3 days, the cells are washed, frozen and thawed, and then incubated with 5 mM p-nitrophenyl phosphate, a chromogenic substrate for the AlkP enzyme, at pH 9.8. To ensure linear enzymatic analysis, the plates are monitored kinetically for the production of p-nitrophenol at 405 nm. […] Each compound was analyzed in at least 3 separate experiments performed in duplicate.

In series [3] the target is T1, ER (ERα) in uterine cytosol (Rattus norvegicus, UniProt P06211).
T1 sequence (P06211 1-600): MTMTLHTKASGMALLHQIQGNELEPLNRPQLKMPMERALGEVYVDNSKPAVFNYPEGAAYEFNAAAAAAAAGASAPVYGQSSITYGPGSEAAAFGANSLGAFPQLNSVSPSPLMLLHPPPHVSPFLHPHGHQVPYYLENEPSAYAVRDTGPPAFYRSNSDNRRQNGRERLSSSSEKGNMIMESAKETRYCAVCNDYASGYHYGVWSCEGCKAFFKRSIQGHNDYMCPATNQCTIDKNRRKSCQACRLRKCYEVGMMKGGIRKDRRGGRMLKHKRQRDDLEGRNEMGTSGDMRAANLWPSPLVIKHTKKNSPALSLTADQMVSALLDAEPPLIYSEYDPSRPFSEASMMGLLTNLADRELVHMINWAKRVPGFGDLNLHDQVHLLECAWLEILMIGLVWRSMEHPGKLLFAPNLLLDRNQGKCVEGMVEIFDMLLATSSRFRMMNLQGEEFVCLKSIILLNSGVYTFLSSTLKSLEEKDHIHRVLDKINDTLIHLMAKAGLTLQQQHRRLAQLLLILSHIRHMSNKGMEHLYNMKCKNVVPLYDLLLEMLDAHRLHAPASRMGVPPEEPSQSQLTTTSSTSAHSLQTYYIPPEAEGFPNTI
In words: Competitive binding to the estrogen receptor in rat uterine cytosol. Conditions: for Estrogen Receptor (RBA): relative binding affinity, E2 = 100, rat uterine cytosol, 1 nM [3H]E2, ± SD; for RBA: relative to E2.

Series [4] deals with T2, ligand binding domain (LBD) of human ERα (M250-V595) (Homo sapiens, UniProt P03372).
T2 construct: human ERα (M250-V595); made in house; host or cells: Escherichia coli (lysate used)
T2 sequence (P03372 250-595): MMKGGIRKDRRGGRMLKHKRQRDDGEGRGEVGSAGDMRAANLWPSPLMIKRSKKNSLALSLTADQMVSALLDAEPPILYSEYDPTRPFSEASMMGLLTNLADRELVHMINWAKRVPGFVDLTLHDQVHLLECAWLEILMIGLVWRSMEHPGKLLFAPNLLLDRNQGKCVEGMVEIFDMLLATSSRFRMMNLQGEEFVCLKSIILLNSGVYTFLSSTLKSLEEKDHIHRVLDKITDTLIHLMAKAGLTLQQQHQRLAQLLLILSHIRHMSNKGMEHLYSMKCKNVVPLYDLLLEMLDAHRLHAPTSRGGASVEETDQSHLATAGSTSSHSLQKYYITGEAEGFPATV
In words: Competitive binding to the LBD of human ERα in E. coli lysates.

The target in series [5] is T3, ligand binding domain (LBD) of human ERβ (M214-Q530) (Homo sapiens, UniProt Q92731).
T3 construct: human ERβ (M214-Q530); made in house; host or cells: Escherichia coli (lysate used)
T3 sequence (Q92731 214-530): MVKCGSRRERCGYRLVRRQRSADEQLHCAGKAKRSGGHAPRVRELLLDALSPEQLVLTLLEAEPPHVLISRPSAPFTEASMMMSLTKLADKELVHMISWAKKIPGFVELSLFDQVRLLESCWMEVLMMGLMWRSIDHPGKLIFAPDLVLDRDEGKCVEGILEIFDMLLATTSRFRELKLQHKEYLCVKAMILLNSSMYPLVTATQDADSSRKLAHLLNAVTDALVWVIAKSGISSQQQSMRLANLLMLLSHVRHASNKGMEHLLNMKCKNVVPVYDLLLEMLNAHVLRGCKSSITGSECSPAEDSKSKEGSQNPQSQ
Kind of series: Competitive binding to the LBD of human ERβ in E. coli lysates. To be noted: RBA compared to E2 (=100), [3H]E2, ± SD.

Series [6] concerns vagina of ovariectomized mice. Kind of series: In vivo estrogen bioassay: vaginal reductases (local). Also on record: species or system mouse. How it is done: In Vivo Estrogen Bioassays: Vaginal reductases. […] The formazan product in the organic extract is quantified at 500 nm. Except where noted, each compound was assayed on at least 2 separate occasions with at least 5–6 replicates each time.

Series [7] concerns uterus of immature rats. In words: In vivo estrogen bioassay: uterine weight (uterotrophic assay, systemic). More on the design: species or system rat. How it is done: In Vivo Estrogen Bioassays: Uterine Weight. […] Control animals received sesame oil. On the fourth day, the animals were killed, the uteri were removed, dissected, blotted and weighed. Except where noted, each compound was assayed in 2 separate experiments with n=5.

Consider “2′-Fluoroethyl(3,17β-dihydroxyestra-1,3,5(10)-trien-15α-yl)formate [E15-1,2F1]”, for which, in series [1] (relative hydrolytic activity in comparison to E16-1,2 (=100), 50 μM ester, 37° C., ± SD), the “Esterase (RHA)” value was 4.5 ± 0.1. The “Ishikawa cell AlkP (RSA)” value in series [2] stood at 3 ± 0.2.
As for `C[C@]12CC[C@@H]3c4ccc(O)cc4CC[C@H]3[C@@H]1CCC2=O` [Compound E1, estrone, reference compound], the “Ishikawa cell AlkP (RSA)” value in series [2] amounted to 4 ± 2.
Consider `C[C@]12CC[C@@H]3c4ccc(O)cc4CC[C@H]3[C@@H]1[C@@H](C(=O)O)C[C@@H]2O` [E15-1,0, 3,17β-Dihydroxyestra-1,3,5(10)-trien-15α-carboxylic acid], for which the “binding to the estrogen receptor (in words)” value in series [3] was “does not bind to the estrogen receptor; also recorded: very low, not measurable”. Moreover, the “estrogenic activity in the Ishikawa cell assay (in words)” value in series [2] is given as “nor does it have estrogenic activity; also recorded: very low, not measurable”.
Consider `CCCOC(=O)[C@H]1C[C@H](O)[C@@]2(C)CC[C@@H]3c4ccc(O)cc4CC[C@H]3[C@H]12` [E15-1,3, Propyl(3,17β-dihydroxyestra-1,3,5(10)-trien-15α-yl)formate], for which the “Estrogen Receptor (RBA)” value in series [3] worked out at 17 ± 5. Moreover, the “Ishikawa cell AlkP (RSA)” value in series [2] is given as 2 ± 1.
As to `CC(C)OC(=O)[C@H]1C[C@H](O)[C@@]2(C)CC[C@@H]3c4ccc(O)cc4CC[C@H]3[C@H]12` [E15-1,3i, Isopropyl(3,17β-dihydroxyestra-1,3,5(10)-trien-15α-yl)formate], the “Esterase (RHA)” value in series [1] is recorded as 0.4 ± 0.1. In series [1] (rat, 50 μM), the “RHA” value came out at 0.3%. Besides, the “Estrogen Receptor (RBA)” value in series [3] is 5 ± 4. The “Ishikawa cell AlkP (RSA)” value in series [2] worked out at 0.3 ± 0.06.
`CCCCOC(=O)[C@H]1C[C@H](O)[C@@]2(C)CC[C@@H]3c4ccc(O)cc4CC[C@H]3[C@H]12` [E15-1,4, Butyl(3,17β-dihydroxyestra-1,3,5(10)-trien-15α-yl)formate]: the “Esterase (RHA)” value in series [1] is given as 7 ± 0.5. In series [3], the “Estrogen Receptor (RBA)” value is listed as 8 ± 2. For the same compound, the “Ishikawa cell AlkP (RSA)” value in series [2] turned out to be 0.7 ± 0.4.
On to `C[C@]12CC[C@@H]3c4ccc(O)cc4CC[C@H]3[C@@H]1[C@@H](CC(=O)O)C[C@@H]2O` [E15-2,0, (3,17β-Dihydroxyestra-1,3,5(10)-trien-15α-yl)acetic acid], for which, in series [3], the “Estrogen Receptor (RBA)” value is less than 0.1. Also, the “Ishikawa cell AlkP (RSA)” value in series [2] stood at 0.2 ± 0.2.
Consider `COC(=O)C[C@H]1C[C@H](O)[C@@]2(C)CC[C@@H]3c4ccc(O)cc4CC[C@H]3[C@H]12` [E15-2,1, Methyl(3,17β-dihydroxyestra-1,3,5(10)-trien-15α-yl)acetate], for which the “Esterase (RHA)” value in series [1] stood at 31 ± 6. For the same compound, in series [3], the “Estrogen Receptor (RBA)” value amounted to 5 ± 3 and the “RBA” value was determined as 5%. The “Ishikawa cell AlkP (RSA)” value in series [2] came to 1 ± 1.
Regarding `CCOC(=O)C[C@H]1C[C@H](O)[C@@]2(C)CC[C@@H]3c4ccc(O)cc4CC[C@H]3[C@H]12` [E15-2,2, Ethyl(3,17β-dihydroxyestra-1,3,5(10)-trien-15α-yl)acetate], the “Esterase (RHA)” value in series [1] is 71 ± 7. Also, in series [3], the “Estrogen Receptor (RBA)” value was determined as 2 ± 0 and the “RBA” value stood at 2%. Moreover, in series [2], the “Ishikawa cell AlkP (RSA)” value stood at 0.4 ± 0.5.
As for `C[C@]12CC[C@@H]3c4ccc(O)cc4CC[C@H]3[C@@H]1[C@@H](CCC(=O)O)C[C@@H]2O` [E15-3,0, 3-(3,17β-Dihydroxyestra-1,3,5(10)-trien-15α-yl)propionic acid], the “Estrogen Receptor (RBA)” value in series [3] amounted to 0. In series [2], the “Ishikawa cell AlkP (RSA)” value turned out to be 0.
With `COC(=O)CC[C@H]1C[C@H](O)[C@@]2(C)CC[C@@H]3c4ccc(O)cc4CC[C@H]3[C@H]12` [E15-3,1, Methyl 3-(3,17β-dihydroxyestra-1,3,5(10)-trien-15α-yl)propionate], the “Esterase (RHA)” value in series [1] came to 248 ± 26. Also, the “Estrogen Receptor (RBA)” value in series [3] was found to be 0.8 ± 0.1. Also, the “Ishikawa cell AlkP (RSA)” value in series [2] turned out to be 0.
Consider `CCOC(=O)CC[C@H]1C[C@H](O)[C@@]2(C)CC[C@@H]3c4ccc(O)cc4CC[C@H]3[C@H]12` [E15-3,2, Ethyl 3-(3,17β-dihydroxyestra-1,3,5(10)-trien-15α-yl)propionate], for which the “Esterase (RHA)” value in series [1] turned out to be 674 ± 14. In addition, in series [3], the “Estrogen Receptor (RBA)” value is less than 0.1. In series [2], the “Ishikawa cell AlkP (RSA)” value was 0.
`CCOC(=O)[C@@H]1C[C@H]2[C@@H]3CCc4cc(O)ccc4[C@H]3CC[C@]2(C)[C@H]1O` [E16-1,2, reference compound]: the “selectivity / preference for ERα” value in series [4] (ERα versus ERβ LBD) is on record as approximately 95 fold. The “ERα RBA” value in series [4] (RBA compared to E2 (=100), LBD of human ERα in E. coli lysates, [3H]E2, ± SD) worked out at 27 ± 6. In addition, in series [4] (ratio RBA of ERα/ERβ, human LBDs, ± SD), the “ERα/ERβ (ratio of RBA)” value came to 95 ± 47. The “enzymatic velocity for the hydrolysis” value in series [1] (rat hepatic microsomes, 50 μM ester, 37° C., ± S.D. over the various experiments) was 2.34±0.8 nmol product/min/mg protein. In series [5], the “ERβ RBA” value came out at 0.3 ± 0.1.
Consider `C[C@]12CC[C@@H]3c4ccc(O)cc4CC[C@H]3[C@@H]1C[C@@H](C(=O)OCCF)[C@@H]2O` [E16-1,2F1, reference compound], for which the “Vaginal effect 50 ng dose (pg E2 equivalent)” value in series [6] (50 ng instilled into the vagina, ovariectomized mice, compared to 50 pg E2, brackets = range) is given as 21^b pg E2 equivalent. Also, the “Vaginal R.A × 10^3” value in series [6] (activity relative to E2, × 10^3, 50 ng dose) is given as 0.42. Further, the “uterotrophic response (in words)” value in series [7] (100 μg dose) is “small but statistically significant response”. In addition, the “Uterotrophic effect 100 μg dose (ng E2 equivalent)” value in series [7] (100 μg total dose s.c. over 3 days, immature rats, compared to 5 ng E2, brackets = range, n.s. = not significantly different from the control) is 2 ng E2 equivalent and 2^b ng E2 equivalent. Moreover, the “Uterotrophic R.A × 10^3” value in series [7] (activity relative to E2, × 10^3, 100 μg dose, n.s. = not significantly different from the control) was 0.02.
